For data set [1] the following is noted: 293.15 K; 101.33 kPa; Liquid; Vibrating tube method.
A short description of data set [2]: refractive index (Na D-line) (dimensionless). Conditions: 293.15 K; 101.33 kPa; Liquid; Standard Abbe refractometry.

SMILES strings stand for the structures. Numbers after ± are expanded uncertainties.

Take `CO` [methanol]: in data set [1], the mass density came to 791.46 ± 0.15 kg/m3. Besides, the refractive index in data set [2] came to 1.32862 ± 0.0004.
On the same counts, the results for `CC(C)O` [propan-2-ol] are 785.46 ± 0.15 kg/m3 and 1.37709 ± 0.0004.
For the molecule `CCCCCCCCCCCC` [dodecane], the mass density in data set [1] is reported as 749.6 ± 0.31 kg/m3. Moreover, the refractive index in data set [2] came to 1.42155 ± 0.00045.
In the same order, the values of `CCO` [ethanol] are 792.05 ± 0.15 kg/m3 and 1.36162 ± 0.0004.

What is called mass density is the mass of a sample divided by its volume. Broadly, the refractive index is the speed of light in vacuum divided by its phase velocity in the sample.
